Legend:
CD126 = assay: Ex vivo flow cytometry priming assay, CD126 surface marker expression on AML patient samples; assay type: cell-based, human; conditions: AML Patient 3
Protocol: (§1) 12 primary AML patient samples were assayed for priming response using a High-Throughput Phenotypic Screening Platform. Samples were treated with 70 priming compounds (either FDA approved compounds or compounds in clinical development). […] This process was repeated on bone marrow aspirate and peripheral blood from 3 healthy donors.

CD24 = assay: Ex vivo flow cytometry priming assay, CD24 surface marker expression on AML patient samples; assay type: cell-based, human; conditions: AML Patient 3
Protocol: as §1

CD38 [1] = assay: 72-hour ex vivo assay, CD38 upregulation in MDS and AML cancer patient samples; assay type: cell-based, human; conditions: subset of MDS and AML cancer patient samples
Description: (§2) The ex vivo detection of CD38 upregulation using the 72-hour ex vivo assay was clinically validated by trial sites, which compared CD38 expression on leukemic blasts before enrollment and at the beginning of cycle two on SY-1425.

CD38 [2] = assay: Clinical validation by trial sites, CD38 expression on leukemic blasts of patients on drug; assay type: in vivo, human; conditions: before enrollment versus beginning of cycle two
Description: as §2

CD15 = assay: Ex vivo flow cytometry priming assay, CD15 surface marker expression on AML patient samples; assay type: cell-based, human; conditions: FIG. 3, three-day incubation
PD-L1 = assay: Ex vivo flow cytometry priming-tuning assay, PD-L1 expression on AML patient samples; assay type: cell-based, human; conditions: FIG. 3, three-day incubation

CC1=C(/C=C/C(C)=C/C=C/C(C)=C/C(=O)O)C(C)(C)CCC1 [Tretinoin]
expression of CD126 (CD126): little effect
expression of CD24 (CD24): little effect

CC1(C)CCC(C)(C)c2cc(NC(=O)c3ccc(C(=O)O)cc3)ccc21 [SY-1425]
CD38 upregulation after exposure (CD38 [1]): upregulation
CD38 expression on leukemic blasts (CD38 [2]): upregulated

Cc1c(-c2ccc(-c3ccccc3F)cc2)nc2ccc(F)cc2c1C(=O)O [Brequinar Sodium]
CD15 expression (CD15): increase
PD-L1 expression (PD-L1): increase

Source: patent publication US20200046737A1, “METHODS FOR TREATING CANCER, AND COMPOSITIONS THEREFOR” (Notable Labs, Inc., priority 2018, published 2020)
